These results are taken from the Deep4Chem optical property database.

The series is described as follows: solvent given as SMILES.

For `CCCCCCCCCCCCN1C(=O)c2c(c3ccc4cc(-c5ccc(C)cc5)c(OC)cc4c3c3c2ccc2cc(-c4ccc(C)cc4)c(OC)cc23)C1=O`, the absorption maximum (in ClCCl) is 436 nm. With `c1ccc(-c2nc(-c3ccc(N4c5ccccc5Oc5ccccc54)cc3)nn2-c2ccc(N3c4ccccc4Oc4ccccc43)cc2)nc1`, for the setting “in ClCCl”, the absorption maximum is listed as 333 nm.

For `CC(C)[Si](C#Cc1c2cc3ccccc3cc2c(C#C[Si](C(C)C)(C(C)C)C(C)C)c2nc3c(ccc4cc5ccccc5cc43)nc12)(C(C)C)C(C)C`, the absorption maximum (in CCCCCC) was 644 nm. Turning to `CCC1=C(C)C2=Cc3c(I)c(I)c(I)n3[B-](F)(F)[N+]2=C1C`, the absorption maximum was 543.5 nm (in C1CCCCC1); 528 nm (in CC(C)=O); 536 nm (in CCO); 532 nm (in CCOC(C)=O); 531.5 nm (in CO); 523 nm (in OCC(F)(F)F). Under “in C1CCCCC1”, `CCn1c2ccccc2c2ccc(-c3ccc(OC)cc3)cc21` gave an absorption maximum of 310 nm. Take `Cc1ccc(C2=[N+]3C(=Nc4c5ccccc5c(-c5ccc(C)s5)n4[B-]3(F)F)c3ccccc32)s1`: the absorption maximum (in ClCCl) was determined as 793 nm. As for `CN(C)c1ccc(C2=Nc3sc4ccccc4[n+]3[B-](F)(F)O2)cc1`, the absorption maximum reads like this: (in C1CCOC1) 424 nm; (in CC#N) 421 nm; (in CC(C)=O) 425 nm; (in Cc1ccccc1) 421 nm; (in ClCCl) 425 nm. Regarding `c1ccc(-n2c(-c3c(-n4c5ccccc5c5ccccc54)cccc3-n3c4ccccc4c4ccccc43)nc3ccccc32)cc1`, the absorption maximum (in C1CCOC1) is listed as 342 nm. As to `O=C1NC(=O)c2c1c1c3ccccc3[nH]c1c1[nH]c3ccccc3c21`, the absorption maximum (in C1CCOC1) is listed as 400 nm; the absorption maximum (in CC#N) is 402 nm; the absorption maximum (in CC(C)OC(C)C) worked out at 391 nm; the absorption maximum (in CCCCOCCCC) amounted to 393 nm; the absorption maximum (in CCO) was 405 nm; the absorption maximum (in CCOC(C)=O) turned out to be 398 nm. The absorption maximum reads like this: (in CN(C)C=O) 409 nm; (in Cc1ccccc1) 398 nm; (in ClCCl) 401 nm. Regarding `CO`, the absorption maximum (in CCCCCC) is 177 nm. For the molecule `Cc1ccc(-c2ccc(C(=O)NC(C)(C)C)c3c2ccc2c4ccccc4c4ccccc4c23)cc1`, the absorption maximum (in ClCCl) was found to be 341 nm. As to `CCN1\C(=C/C=C/C=C/C2=[N+](CC)c3ccc4cc(Br)ccc4c3C2(C)C)C(C)(C)c2c1ccc1cc(Br)ccc21`, the absorption maximum by setting is: (in C1CCOC1) 683 nm; (in CC#N) 680 nm; (in CC(C)=O) 682 nm; (in CCO) 685 nm; (in CN(C)C=O) 686 nm; (in CO) 681 nm. In addition, the absorption maximum was 689 nm (in CS(C)=O) and 697 nm (in ClCCl). In the case of `c1ccc2c(c1)Sc1ccccc1N2c1ccc2c(c1)C1(CCCC1)c1cc(N3c4ccccc4Sc4ccccc43)ccc1-2`, the absorption maximum (in Cc1ccccc1) is recorded as 308 nm. `CC(C)(C)c1cc(-c2c3cccc4c5cccc6c(-c7cc(C(C)(C)C)cc(C(C)(C)C)c7)c7cccc8c9cccc2c9c(c34)c(c65)c78)cc(C(C)(C)C)c1` displayed an absorption maximum (in Cc1ccccc1) of 687 nm. Regarding `CCCCCCOc1cc(/C=C/c2cc(OCCCCCC)c(/C=C/c3cc(OCCCCCC)c(/C=C4\C(=O)c5ccccc5C4=C(C#N)C#N)cc3OCCCCCC)cc2OCCCCCC)c(OCCCCCC)cc1/C=C1\C(=O)c2ccccc2C1=C(C#N)C#N`, the absorption maximum (in ClCCl) amounted to 611 nm.

In turn, `CC1=CC(/C=C/c2ccc(N(C)C)cc2)=[N+]2C1=C(c1ccccc1)c1c(C)cc(/C=C/c3ccc(N(C)C)cc3)n1[B-]2(F)F` registered an absorption maximum (in ClC(Cl)Cl) of 700 nm.

Take `CCCCC(CC)COc1ccc2nc(-c3ccc(-c4ccc(N(C)C)cc4)s3)sc2c1` (stereo not given): the absorption maximum (in ClCCl) is recorded as 402 nm.

In turn, `CC(C)(C)c1ccc(Oc2cc3c4c(cc(Oc5ccc(C(C)(C)C)cc5)c5c6c(Oc7ccc(C(C)(C)C)cc7)cc7c8c(cc(Oc9ccc(C(C)(C)C)cc9)c(c2c45)c86)C(=O)OC7=O)C(=O)OC3=O)cc1` registered an absorption maximum (in ClC(Cl)Cl) of 581 nm.

Under “in C1CCCCC1”, `CCc1c(C)c2n(c1C)[B-](F)(F)[N+]1=C(C=C3C=Cc4ccccc43)C=CC1=C2C` had an absorption maximum of 591 nm.

The molecule `O=C1c2cccc3c(C#CC#Cc4ccc5c6c(cccc46)C(=O)N(c4ccccc4)C5=O)ccc(c23)C(=O)N1c1ccccc1` had an absorption maximum (in ClCCl) of 386 nm. For `CCCCCCCCOc1ccc(C#Cc2ccc(C#Cc3ccc(OCCCCCCCC)c(OCCCCCCCC)c3)c3nc4c5ccccc5c5ccccc5c4nc23)cc1OCCCCCCCC`, the absorption maximum by setting is: (in C1CCOC1) 461 nm; (in Cc1ccccc1) 461 nm; (in ClCCl) 461 nm. The molecule `Brc1cnc(-c2ccc(N(c3ccccc3)c3ccccc3)cc2)s1` came in with an absorption maximum (in CO) of 369 nm. For the molecule `CCN(CC)c1ccc(-c2nc(Oc3ccc(-c4nc5ccccc5s4)cc3)nc(Oc3ccc(-c4nc5ccccc5s4)cc3)n2)cc1`, the absorption maximum (in CN(C)C=O) came to 374 nm. `CCN1CCN(c2ccc(/N=N/c3cc(C(F)(F)F)cc(C(F)(F)F)c3)cc2)CC1` registered an absorption maximum (in CCOC(C)=O) of 427 nm. In the case of `CC[n+]1c(-c2ccccc2)c2cc(N)ccc2c2ccc(NC(N)=[NH2+])cc21`, where the note is “in O”, the absorption maximum worked out at 444 nm. As for `CN(C)c1ccc(-c2cc(-c3ccc(C#N)cc3)nc(-c3ccccc3)n2)cc1`, the absorption maximum (in ClC(Cl)Cl) is given as 376 nm. Where the note is “in Cc1ccccc1”, `COc1ccc2c(c1)c1cc(OC)ccc1n2-c1ccc(S(=O)(=O)c2ccc(-n3c4ccc(OC)cc4c4cc(OC)ccc43)cc2)cc1` had an absorption maximum of 369.69 nm. Take `CC(C)[Si](C#Cc1c2cc3ccccc3cc2c(C#C[Si](C(C)C)(C(C)C)C(C)C)c2nc3c(nc12)C1c2ccccc2C3c2ccccc21)(C(C)C)C(C)C`: for the setting “in CCCCCC”, the absorption maximum is on record as 542 nm.

With `O=[N+]([O-])c1cccc(O)c1`, the absorption maximum runs as follows: (in CO) 329 nm; (in O) 328 nm.

`CCCCCCCCCCCn1cccc1C1=[N+]2C(=Cc3c(C)cc(C)n3[B-]2(F)F)c2ccccc21`: the absorption maximum runs as follows: (in C1CCOC1) 584 nm; (in CC#N) 577 nm; (in CCCCCC) 583 nm; (in CO) 579 nm; (in Cc1ccccc1) 590 nm; (in ClCCl) 584 nm. For the molecule `CCCCCCCCCCCCn1nnc(-c2ccc(C#Cc3ccc(C#Cc4ccc(-c5nnn(CCCCCCCCCCCC)n5)cc4)c4nc5c6ccccc6c6ccccc6c5nc34)cc2)n1`, the absorption maximum (in C1CCOC1) was 428 nm, the absorption maximum (in Cc1ccccc1) came out at 428 nm and the absorption maximum (in ClCCl) is listed as 428 nm. For the molecule `CCC1=C(C)c2cc3ccccc3c(=O)n2C1=O`, the absorption maximum is listed as 369 nm (in CC#N); 366 nm (in CCCCCC); 370 nm (in CO); 373 nm (in CS(C)=O); 371 nm (in ClC(Cl)Cl). The molecule `CC1=CC(C)=[N+]2C1=C(c1ccc(I)cc1)c1c(C)cc(C)n1[B-]2(Oc1ccc([N+](=O)[O-])cc1)Oc1ccc([N+](=O)[O-])cc1` came in with an absorption maximum (in ClC(Cl)Cl) of 505 nm. Molecule `F[B-]1(F)Oc2ccccc2-c2cc(-n3c4ccccc4c4ccccc43)cc[n+]21` registered an absorption maximum (in Cc1ccccc1) of 366 nm. `CCOC(=O)/N=c1/oc2cc(OC)cc(OC)c2cc1C#N` came in with an absorption maximum (in ClCCl) of 376 nm. With `CCCCCCCCC1(CCCCCCCC)c2cc(-c3ccc(C(=O)OC)cc3)ccc2-c2ccc(-c3ccc(C(=O)OC)cc3)cc21`, the absorption maximum (in ClC(Cl)Cl) is on record as 341 nm. `N#CC(C#N)=Cc1ccc(-c2ccc(O)c(-c3nc4ccccc4s3)c2)s1`: the absorption maximum turned out to be 427 nm (in ClCCl) and 416 nm (in O). Regarding `Clc1ncc(-c2c3ccccc3c(-c3cnc(Cl)nc3)c3ccccc23)cn1`, the absorption maximum reads like this: (in CCO) 394 nm; (in ClCCl) 396 nm.

`CCOC(=O)c1ccc(C2=Cc3ccccc3P2(=O)c2ccccc2)cc1` (stereo not given) gave an absorption maximum (in ClCCl) of 353 nm. `[NH3+]c1ccc2c(c1)Cc1ccccc1-2` gave an absorption maximum (in O) of 299 nm. Take `CC1(C)c2cc(C#N)ccc2-c2ccc(N3c4ccccc4Oc4ccccc43)cc21`: the absorption maximum by setting is: (in C1CCCCC1) 395 nm; (in C1CCOC1) 380 nm; (in CC#N) 375 nm; (in Cc1ccccc1) 390 nm; (in ClC(Cl)Cl) 389 nm. Molecule `c1ccn(-c2ccc(-c3cc(-c4ccc(-n5cccc5)cc4)cc(-c4ccc(-n5cccc5)cc4)c3)cc2)c1` registered an absorption maximum (in ClCCl) of 388.72 nm. For `c1ccc(-n2nc(-c3ccc(-c4ccc5c(c4)C(c4ccccc4)(c4ccccc4)c4ccccc4-5)cc3)nc2-c2ccccn2)cc1`, the absorption maximum (in ClCCl) came to 323 nm. In turn, `O=c1oc2ccccc2c2cc(N3c4ccccc4Oc4ccccc43)ccc12` came in with an absorption maximum (in Cc1ccccc1) of 395 nm. Where the note is “in CC#N”, `CN1\C(=C/C=C/C=C/C2=C3C=CC(c4ccccc4)=[N+]3[B-](F)(F)n3c2ccc3-c2ccccc2)C(C)(C)c2ccccc21` showed an absorption maximum of 771 nm. In the case of `CC1(C)c2ccccc2N(c2ccc(-c3nc(-c4ccccn4)n(-c4ccccc4)n3)cc2)c2ccccc21`, the absorption maximum (in ClCCl) was 342 nm. Turning to `C(=C\c1cnccn1)/c1ccc(N(c2ccccc2)c2ccccc2)cc1`, the absorption maximum stood at 393 nm (in C1CCOC1), 391 nm (in CC#N), 400 nm (in CS(C)=O) and 394 nm (in ClCCl).

Take `CC(C)(C)c1cccc2c(O)cccc12`: under “in O”, the absorption maximum worked out at 296 nm. In turn, `Nc1ncc2nc[nH]c2n1` had an absorption maximum (in O) of 290 nm. The molecule `COc1ccc(C2=[N+]3C(=Nc4c(-c5cc(OC)c(OC)c(OC)c5)cc(-c5ccc(OC)cc5)n4[B-]3(F)F)C(c3cc(OC)c(OC)c(OC)c3)=C2)cc1` showed an absorption maximum (in Cc1ccccc1) of 698 nm. The molecule `O=Cc1ccc(C#CC(C#Cc2ccc(C=O)o2)=Cc2ccc(C=C(C#Cc3ccc(C=O)o3)C#Cc3ccc(C=O)o3)s2)o1` gave an absorption maximum (in ClC(Cl)Cl) of 516 nm. `C1=C(c2ccccc2)C=C(c2ccccc2)/C1=C/c1ccccc1` gave an absorption maximum (in C1CCOC1) of 438 nm.

In turn, `[O-][n+]1c(/C=C/c2ccc3ccccc3c2)nc(N2CCOCC2)c2c1CCCC2` registered an absorption maximum (in ClCCl) of 400 nm.
